Columns and labels:
[1] = system: progressive malignant pleural mesothelioma (MPM); experiment: Phase II single-arm, multi-centric trial of lurbinectedin monotherapy: efficacy (PFS, OS, response); type: in vivo, human
Procedure: In order to evaluate the efficacy of lurbinectedin in the treatment of progressive malignant pleural mesothelioma (MPM), a Phase II single-arm, multi-centric, international trial was performed.
(§1) The primary endpoint was progression-free survival at 12 weeks (PFS12wks), defined as the absence of progression or death due to any cause during the first 12 weeks (±2 weeks) after registration. Secondary endpoints included progression-free survival (PFS), defined as the time from registration until radiologic progression or death due to any cause, whichever occurs first; overall survival (OS), defined as the time from registration until death due to any cause; objective response rate (ORR), defined as the proportion of patients who achieved complete (CR) or partial remission (PR) during the trial treatment; disease control rate (DCR) defined as the sum of CR, PR and stable disease (SD) at least for 12 weeks (SD≥12wks); duration of disease control, defined as the time from registration to progression or death due to any cause whichever occurs first for patients who had CR, PR or SD≥12wks; and adverse events (AE). All AEs were assessed according to NCI CTCAE v4.03. Patients lost to follow-up were censored at the last date they were known to be alive.
This trial was conducted in 6 centers in Switzerland and 3 in Italy. Subjects enrolled in this clinical trial were adult (age ≥ 18 years) patients having histologically or cytologically confirmed MPM, an Eastern Cooperative Oncology Group (ECOG) status of 0-1 and had progressed on or after one line of platinum-pemetrexed chemotherapy without being amenable to local treatment. Further inclusion criteria required an adequate hepatic, renal and bone marrow function (absolute neutrophil count ≥ 2 × 10^9 /L, platelet count ≥ 100 × 10^9 /L; aspartate aminotransferase and alanine aminotransferase ≤ 3.0 × ULN; creatinine clearance ≥ 30 mL/min/1.73).
Eligible patients could additionally have received one prior line of immunotherapy, but more than one lines of chemotherapy, including pemetrexed rechallenge, were not allowed. Further exclusion criteria covered known brain metastases or leptomeningeal disease, history of other hematologic or primary solid tumors within five years prior to registration (with the exception of curatively treated basal or squamous cell carcinoma of the skin, properly treated in situ malignant melanoma, in situ carcinoma of the uterine cervix or pT1-2 prostate cancer with Gleason score ≤6), concomitant use of anti-cancer surgery or radiotherapy (except for local pain control or pleurodesis) and adverse events Grade ≥2 derived from previous treatment.
Lurbinectedin was given every 3 weeks at a dose of 3.2 mg/m^2 as a 1-hour intravenous infusion through peripheral or central lines. Standard antiemetic prophylaxis (corticosteroids or serotonin (5-HT3) antagonists) was administered prior to chemotherapy. […] In case of third re-emergence of Grade 3-4 toxicity treatment was permanently discontinued. Specifically for leucopenia Grade 3-4 and/or febrile neutropenia there was mandatory secondary G-CSF prophylaxis together with dose reduction by one level.
(§2) Patients were followed clinically and with laboratory tests at time of chemotherapy administration and additionally with contrast enhanced CT- or PET/CT scans every 6 weeks. […] In case of treatment discontinuation for any reason, adverse events were reported for 30 days after last treatment application. For those cases where lurbinectedin was stopped without manifest progression radiology scans were performed every 8 weeks during the follow-up period otherwise patients were followed-up via telephone every 12 weeks for survival status.
A Simon two-stage design was used as presented by Simon R. (Control Clin Trials. 1989 Mar;10(1):1-10). We had set our null-hypothesis p0 at PFS12wks ≤35%, translated to a median PFS of ≤ 2 months. […]

[2] = Phase II trial of lurbinectedin monotherapy: adverse events (NCI CTCAE v4.03) and tolerability; type: in vivo
From the text: as §1
[…] Standard antiemetic prophylaxis (corticosteroids or serotonin (5-HT3) antagonists) was administered prior to chemotherapy. […] In case of third re-emergence of Grade 3-4 toxicity treatment was permanently discontinued. Specifically for leucopenia Grade 3-4 and/or febrile neutropenia there was mandatory secondary G-CSF prophylaxis together with dose reduction by one level.
as §2

Molecule: COc1ccc2[nH]c3c(c2c1)CCN[C@]31CS[C@@H]2c3c(OC(C)=O)c(C)c4c(c3[C@H](COC1=O)N1[C@@H]2[C@H]2c3c(cc(C)c(OC)c3O)C[C@@H]([C@@H]1O)N2C)OCO4 (stereo in doubt) [lurbinectedin]
- patients with disease control lasting for 8 months or longer ([1]; 6/22 patients): 27.3%
- median OS ([1]; <6 months progression-free interval on prior pemetrexed): 8.8 months
- median OS ([1]; >=6 months progression-free interval on prior pemetrexed): 13.3 months
- PFS12wks ([1]; additional prior immunotherapy): 70%
- median OS ([1]; additional prior immunotherapy): 10.4 months
- median PFS ([1]; additional prior immunotherapy): 3.2 months
- DCR ([1]; all 42 patients): 52.4%
- ORR ([1]; all 42 patients): 4.8%
- complete remission (CR) ([1]; all 42 patients): One
- partial remission (PR) ([1]; all 42 patients): one
- stable disease ([1]; all 42 patients): 20 patients
- PFS12wks (primary endpoint) reached ([1]; all patients, 22/42, 90% CI 38.7-63.5, p=0.015): 52.4%
- PFS12wks, Kaplan-Meier method at 12 weeks ([1]; all patients, 90% CI 49.7-74.4): 63.5%
- median PFS ([1]; all patients, 95% CI 2.6-5.5, median follow-up 14.9 months): 4.1 months
- 9 months PFS% ([1]; all patients, 95% CI 4.7-24.9): 12.7%
- median OS ([1]; all patients, 95% CI 8.8-14.7): 11.1 months
- 6 months PFS% ([1]; all patients, 95% CI 17.1-44.9): 30.5%
- 12 months OS ([1]; all patients, 95% CI 28.1-60.3): 44.9%
- 3 months PFS% ([1]; all patients, 95% CI 41.8-71.7): 58.4%
- 6 months OS ([1]; all patients, 95% CI 57.7-84.6): 73.8%
- PFS12wks ([1]; epithelioid histology): 63.6%
- median OS ([1]; epithelioid histology): 12.4 months
- median PFS ([1]; epithelioid histology): 4.1 months
- PFS12wks reached (interim analysis) ([1]; first 21 patients, Simon 2-stage, 11 patients): 52.4%
- PFS12wks ([1]; non-epithelioid histology): 62.5%
- median OS ([1]; non-epithelioid histology): 10.0 months
- median PFS ([1]; non-epithelioid histology): 3.7 months
- patients who had died at the time of analyses ([1]; of 42, progression 23, viral pneumonitis 1, suicide 1, heart failure 1): 26 patients
- median duration of disease control ([1]; patients with CR, PR or SD>=12wks, 95% CI 5.2-7.4): 6.6 months
- PFS12wks ([1]; prior chemotherapy alone): 61.4%
- median OS ([1]; prior chemotherapy alone): 11.9 months
- median PFS ([1]; prior chemotherapy alone): 4.1 months
- median PFS ([1]; progressed on previous platinum-pemetrexed in >=6 months): 4.3 months
- PFS12wks ([1]; progressed on previous platinum-pemetrexed in >=6 months (28 patients)): 67.9%
- median PFS ([1]; progressed on previous platinum-pemetrexed within <6 months): 3.0 months
- PFS12wks ([1]; progressed on previous platinum-pemetrexed within <6 months (14 patients)): 53.8%
- AEs ([2]; Grade 5, N = 42): 0 (0.0%) n (%)
- Lurbinectedin-related AEs ([2]; Grade 5, N = 42): 0.0 (0.0%) n (%)
- treatment-related death ([2]; N=42): no treatment-related death
- Abdominal pain, lurbinectedin-related AE ([2]; human, in vivo): 1 (2.4%) n (%)
- Alkaline phosphatase increased, lurbinectedin-related AE ([2]; human, in vivo): 1 (2.4%) n (%)
- Aspartate aminotransferase increased, lurbinectedin-related AE ([2]; human, in vivo): 2 (4.8%) n (%)
- Blood bilirubin increased, lurbinectedin-related AE ([2]; human, in vivo): 3 (7.1%) n (%)
- Cholangitis, lurbinectedin-related AE ([2]; human, in vivo): 1 (2.4%) n (%)
- Confusion, lurbinectedin-related AE ([2]; human, in vivo): 1 (2.4%) n (%)
- Cough, lurbinectedin-related AE ([2]; human, in vivo): 1 (2.4%) n (%)
- Creatinine increased, lurbinectedin-related AE ([2]; human, in vivo): 1 (2.4%) n (%)
- Diarrhea, lurbinectedin-related AE ([2]; human, in vivo): 3 (7.1%) n (%)
- Dizziness, lurbinectedin-related AE ([2]; human, in vivo): 2 (4.8%) n (%)
- Dry skin, lurbinectedin-related AE ([2]; human, in vivo): 2 (4.8%) n (%)
- Dysgeusia, lurbinectedin-related AE ([2]; human, in vivo): 1 (2.4%) n (%)
- Dyspepsia, lurbinectedin-related AE ([2]; human, in vivo): 1 (2.4%) n (%)
- Dysphagia, lurbinectedin-related AE ([2]; human, in vivo): 1 (2.4%) n (%)
- Edema limbs, lurbinectedin-related AE ([2]; human, in vivo): 1 (2.4%) n (%)
- Febrile neutropenia, lurbinectedin-related AE ([2]; human, in vivo): 4 (9.5%) n (%)
- Flu like symptoms, lurbinectedin-related AE ([2]; human, in vivo): 1 (2.4%) n (%)
- Halitosis, lurbinectedin-related AE ([2]; human, in vivo): 1 (2.4%) n (%)
- Headache, lurbinectedin-related AE ([2]; human, in vivo): 1 (2.4%) n (%)
- Hypertension, lurbinectedin-related AE ([2]; human, in vivo): 1 (2.4%) n (%)
- Hypomagnesemia, lurbinectedin-related AE ([2]; human, in vivo): 5 (11.9%) n (%)
- Infection of unknown origin, lurbinectedin-related AE ([2]; human, in vivo): 1 (2.4%) n (%)
- Infections with unknown origine, lurbinectedin-related AE ([2]; human, in vivo): 1 (2.4%) n (%)
- Insomnia, lurbinectedin-related AE ([2]; human, in vivo): 1 (2.4%) n (%)
- Lung infection, lurbinectedin-related AE ([2]; human, in vivo): 1 (2.4%) n (%)
- Memory impairment, lurbinectedin-related AE ([2]; human, in vivo): 1 (2.4%) n (%)
- Pancytopenia, lurbinectedin-related AE ([2]; human, in vivo): 1 (2.4%) n (%)
- Productive cough, lurbinectedin-related AE ([2]; human, in vivo): 1 (2.4%) n (%)
- Skin infection, lurbinectedin-related AE ([2]; human, in vivo): 1 (2.4%) n (%)
- Superficial thrombophlebitis, lurbinectedin-related AE ([2]; human, in vivo): 1 (2.4%) n (%)
- Urea increased, lurbinectedin-related AE ([2]; human, in vivo): 1 (2.4%) n (%)
- Vertigo, lurbinectedin-related AE ([2]; human, in vivo): 1 (2.4%) n (%)
- Watering eyes, lurbinectedin-related AE ([2]; human, in vivo): 1 (2.4%) n (%)
- Weight loss, lurbinectedin-related AE ([2]; human, in vivo): 2 (4.8%) n (%)
- White blood cell decreased, lurbinectedin-related AE ([2]; human, in vivo): 3 (7.1%) n (%)
- all other Grade 3-4 lurbinectedin-related toxicities ([2]; human, in vivo): < 10%
- dose reductions for which AEs were the reason ([2]; human, in vivo): 91.7%
- fatigue, lurbinectedin-related AE Grade 3-4 ([2]; human, in vivo): 16.7%
- febrile neutropenia ([2]; human, in vivo): 9.5%
- herpes zoster, lurbinectedin-related AE ([2]; human, in vivo): 1 (2.4%) n (%)
- neutropenia, lurbinectedin-related AE Grade 3-4 ([2]; human, in vivo): 23.8%
- patients showing no lurbinectedin-related AEs ([2]; human, in vivo): AE: adverse event; ^1: 4 patients (9.5%) showed no lurbinectedin-related AEs
- patients with at least one adverse event (AE) of any grade ([2]; human, in vivo): 100%
- patients with at least one dose reduction ([2]; human, in vivo): 28.6%
- patients with lurbinectedin-related AEs Grade 3-4 ([2]; human, in vivo): 47.6%
- patients with treatment delayed at least once ([2]; human, in vivo): 50%
- patients with treatment related AEs (any grade) ([2]; human, in vivo): 90.5%
- patients with two dose reductions ([2]; human, in vivo): 2/42
- treatment delay caused by AEs ([2]; human, in vivo): 26.2%
- Mucositis oral, lurbinectedin-related AE ([2]; human, in vivo, po): 1 (2.4%) n (%)
- treatment discontinuation due to toxicity ([2]; in vivo): no treatment discontinuation due to toxicity

B1: G-CSF: granulocyte colony-stimulating factor, given as prophylaxis for leucopenia/febrile neutropenia (protein, UniProt P09919 31-207, looked up)
Granulocyte …: TPLGPASSLPQSFLLKCLEQVRKIQGDGAALQEKLVSECATYKLCHPEELVLLGHSLGIPWAPLSSCPSQALQLAGCLSQLHSGLFLYQGLLQALEGISPELGPTLDTLQLDVADFATTIWQQMEELGMAPALQPTQGAMPAFASAFQRRAGGVLVASHLQSFLEVSYRVLRHLAQP
- incidence of grade 3-4 neutropenia ([2]; G-CSF given in patients on lurbinectedin): diminished

From patent publication US20230241041A1, “LURBINECTEDIN IN THE TREATMENT OF MALIGNANT MESOTHELIOMA” (PHARMA MAR, S.A., priority 2019, published 2023)
